Assay results published in US7553974B2, “Crystal of (2R,4R)-monatin potassium salt and sweetener composition containing same” (Ajinomoto Co., Inc., priority 2004, dated 2009).
Structures can show the parent of a compound that is named as a salt. Where two headings read alike, the source gives them in different places.

How the values were obtained:
[1] = assay type: physicochemical; details: for transmittance (%): 1 g/dl in H2O, room temperature, 490 nm
Text: The crystals of the (2R,4R)-monatin dipotassium salt obtained in Example 9, (2R,4R)-monatin, and crystals of the (2R,4R)-monatin monopotassium salt produced according to the production method described in the aforementioned WO03/045914 were subjected to a coloring test. Measurement Method of Coloring Test: • Measurement device: CARY 50 UV-VIS spectrophotometer manufactured by Varian Technologies Japan Limited; • Concentration: 1 g/dl; • Solvent: H2O; • Temperature: room temperature; • Measurement wavelength: 490 nm; and • Measurement interval: 30 minutes.

[2] = assay type: physicochemical; details: for area %: HPLC area of (2R,4R)-monatin relative to total peak area, 210 nm, 60° C. preservation sample; for area % / weight change (%): 1 week; for weight change (%): HPLC quantitation value of 60° C. sample, room temperature sample = 100%
Experimental: The crystals of the (2R,4R)-monatin dipotassium salt obtained in Example 1 and Example 9, and crystals of the (2R,4R)-monatin monopotassium salt produced according to the production method described in the aforementioned WO03/045914 were subjected to a preservation stability test. Each sample (50 mg) was placed in a 4 ml vial (with screw cap) and stored at 60° C. and room temperature for 1 week.
A chromatogram for each sample was measured by HPLC, and the HPLC quantitation value of the 60° C. preservation sample, when that of the room temperature preservation sample was 100%, was shown as a weight change. In addition, an HPLC chromatogram of each sample was measured and the ratio of the area value of (2R,4R)-monatin relative to the total area value of the entire peaks detected (detection wavelength: 210 nm) in the 60° C. preservation sample was expressed as the area %.

[3] = assay type: physicochemical
Experimental: The crystals of the (2R,4R)-monatin dipotassium salt obtained in Example 9 and crystals of the (2R,4R)-monatin monopotassium salt were tested for solubility using the following conditions” • Temperature: 20° C.; and
Solubility measurement method: Two test tubes for each of 0, 20, 40, 60, 80, 100% ethanol, which contained 2 ml thereof were prepared. The crystals of the (2R,4R)-monatin dipotassium salt and crystals of the (2R,4R)-monatin monopotassium salt were added thereto in an amount prohibiting complete dissolution. The test tubes were capped and stirred overnight. Then, the mixture was passed through a filter (0.45 μm) and the filtrate was analyzed.

| SMILES | transmittance (%) ([1]; time 0.0 hour) | transmittance (%) ([1]; time 2.0 hour) | transmittance (%) ([1]; time 4.0 hour) | transmittance (%) ([1]; time 6.0 hour) | transmittance (%) ([1]; time 8.0 hour) | transmittance (%) ([1]; time 10.0 hour) | transmittance (%) ([1]; time 12.0 hour) | transmittance (%) ([1]; time 14.0 hour) | transmittance (%) ([1]; time 16.0 hour) | transmittance (%) ([1]; time 18.0 hour) | transmittance (%) ([1]; time 20.0 hour) | transmittance (%) ([1]; time 22.0 hour) | area % [2] | weight change (%) [2] | area % ([2]; dipotassium salt) | weight change (%) ([2]; dipotassium salt) | color stability [1] | solubility [3] | preservation stability [2] |
| --- | --- | --- | --- | --- | --- | --- | --- | --- | --- | --- | --- | --- | --- | --- | --- | --- | --- | --- | --- |
| NC(CC(O)(Cc1c[nH]c2ccccc12)C(=O)O)C(=O)O [(2R,4R)-monatin monopotassium salt] | 100.02% | 99.75% | 99.28% | 98.42% | 97.98% | 96.86% | 95.61% | 94.35% | 92.97% | 91.49% | 90.05% | 88.75% | 99.8% | 100% | – | – | – | – | – |
| N[C@H](C[C@](O)(Cc1c[nH]c2ccccc12)C(=O)[O-])C(=O)[O-].[K+].[K+] [Example 1, (2R,4R)-monatin dipotassium salt] | – | – | – | – | – | – | – | – | – | – | – | – | – | – | 98.4% | 99% | – | – | – |
| N[C@H](C[C@](O)(Cc1c[nH]c2ccccc12)C(=O)[O-])C(=O)[O-].[K+].[K+] [Example 9, (2R,4R)-monatin dipotassium salt] | 99.63% | 99.60% | 99.51% | 99.43% | 99.44% | 99.44% | 99.41% | 99.42% | 99.39% | 99.35% | 99.39% | 99.38% | 99.6% | 103% | – | – | superior | superior | almost of the same level |
